Series [1] in a line: Test Example 1: oral absorption in rats, serum concentrations of tolvaptan after oral suspension. In kind it is in vivo. To be noted: male rats deprived of food about 18 hours, forced oral administration of suspension, 1 mg of tolvaptan per kg, Mean ± S.D. (n = 3 or 4). On the procedure: The compounds obtained in Examples 1, 50, and 52 were used as test compounds.
Each test compound, (Examples 1, 50, and 52) equivalent to 10 mg of tolvaptan, and hypromellose (125 mg) were suspended in 25 ml of water for injection in a porcelain mortar, to thereby obtain a suspension equivalent to 0.4 mg of tolvaptan per ml of suspension.
A spray-dried tolvaptan powder equivalent to 60 mg of tolvaptan, which was prepared in a similar manner to Example 3 of Japanese Unexamined Patent Publication No. 1999-21241, was suspended in 50 ml of water for injection in a porcelain mortar. This suspension was diluted three-fold with water for injection, preparing a suspension of spray-dried powder equivalent to 0.4 mg of tolvaptan per ml of suspension.
The following tests were conducted to examine the oral absorption features of each suspension. Male rats (body weight: about 180 g) that had been deprived of food for about 18 hours were used as test animals. The above suspensions were each administered by forced oral administration using a sonde for oral administration at a dose of 2.5 ml/kg of body weight, producing 1 mg of tolvaptan per kg of body weight. The blood samples were collected from the jugular vein under light diethyl ether anesthesia at the time of 0.5 hour, 1 hour, 2 hours, 4 hours, 6 hours, and 8 hours later after dosing. The serum concentrations of tolvaptan (ng/ml) were determined by using UPLC-MS/MS (Waters).
The average phaLmacokinetic parameters were calculated from the results.

Series [2] is described as follows: Test Example 2: oral absorption in rats, serum concentrations of tolvaptan after oral solution or suspension. Particulars: rat, male rats fasted about 18 hours, forced oral administration of suspension or solution, 1 mg of tolvaptan per kg, Mean ± S.D. (n = 4). Format: in vivo. On the procedure: The compounds obtained in Examples 74 was used as test compounds.
The test compound, (Examples 1) equivalent to 10 mg of tolvaptan, and hydroxypropylcellulose (5 mg) was dissolved in 25 ml of water for injection in a porcelain mortar, to thereby obtain a solution equivalent to 0.4 mg of tolvaptan per ml.
A spray-dried tolvaptan powder equivalent to 10 mg of tolvaptan was suspended in 25 ml of water for injection in a porcelain mortar, to obtain a suspension of spray-dried powder equivalent to 0.4 mg of tolvaptan per ml of suspension.
The following tests were conducted to examine the oral absorption features of each suspension and solution. Male rats (body weight: about 160 g) that had been fasted for about 18 hours were used as test animals. The above suspension or solution were each administered by forced oral administration using a sonde for oral administration at a dose of 2.5 ml/kg of body weight, producing 1 mg of tolvaptan per kg of body weight. The blood samples were collected from the jugular vein under light diethyl ether anesthesia at the time of 0.5 hour, 1 hour, 2 hours, 3 hours, 4 hours, 6 hours, 8 hours and 10 hours later after dosing. The serum concentrations of tolvaptan (ng/ml) were determined by using UPLC-MS/MS (Waters).
The average pharmacokinetic parameters were calculated from the results.

One may read the AUC(0-inf) as total exposure, with the tail of the curve extrapolated. High values mean more exposure, low ones less exposure. As usually defined, the MRT inf is a mean duration of stay, worked out from the concentration-time curve. What is called Cmax is the maximum level reached in the sampled fluid or tissue. By Tmax is commonly meant the time from dosing to the highest level.

In series [1] (rat), `Cc1ccccc1C(=O)Nc1ccc(C(=O)N2CCCC(O)c3cc(Cl)ccc32)c(C)c1` (stereo not drawn) [Tolvaptan] came in with an AUC(0-inf) of 80.9 ± 28.5 ng·h/mL and a mean residence time (MRT inf) of 2.95 ± 0.35 h. In series [1] (rat, read-out: Cmax), the Cmax was determined as 26.4 ± 12.9 ng/mL. For the same compound, the Tmax in series [1] (rat, read-out: Tmax) was determined as 1.5 ± 0.58 h. Further, in series [2], the AUC(0-inf) is 92.4 ± 27 ng·h/mL, the peak level (Cmax) was 26.9 ± 11.6 ng/mL, the mean residence time MRT inf came out at 2.96 ± 0.47 h and the time to peak (Tmax) is 1 h.

Regarding `Cc1ccccc1C(=O)Nc1ccc(C(=O)N2CCCC(OC(=O)CCC(=O)O)c3cc(Cl)ccc32)c(C)c1` (stereo not drawn) [Example 1, {7-Chloro-1-[2-methyl-4-(2-methyl-benzoylamino)-benzoyl]-2,3,4,5-tetrahydro-1H-benzo[b]azepin-5-yl} Succinate], in series [1], the “AUC∞” value stood at 96.1 ± 18.1 ng·h/mL, the Cmax is recorded as 16.2 ± 4.8 ng/mL, the “MRT∞” value was determined as 4.45 ± 0.64 h and the Tmax is 2.00 ± 0.00 h.

Values taken from patent publication US9073868B2, “Benzazepine derivatives useful as vasopressin antagonists” (Otsuka Pharmaceutical Co., Ltd., priority 2007, dated 2015).
